In US8003649B2 (AstraZeneca AB, priority 2007, dated 2011):

Target: T1, Androgen Receptor (AR) (Homo sapiens, UniProt P10275, T878A)
T1 construct: cell based immuno-fluorescence assay using the LNCaP prostate epithelial cell line; endogenous in cells; host or cells: LNCaP clone FGC (ATCC CRL-1740)
T1 sequence (P10275 1-920 T878A): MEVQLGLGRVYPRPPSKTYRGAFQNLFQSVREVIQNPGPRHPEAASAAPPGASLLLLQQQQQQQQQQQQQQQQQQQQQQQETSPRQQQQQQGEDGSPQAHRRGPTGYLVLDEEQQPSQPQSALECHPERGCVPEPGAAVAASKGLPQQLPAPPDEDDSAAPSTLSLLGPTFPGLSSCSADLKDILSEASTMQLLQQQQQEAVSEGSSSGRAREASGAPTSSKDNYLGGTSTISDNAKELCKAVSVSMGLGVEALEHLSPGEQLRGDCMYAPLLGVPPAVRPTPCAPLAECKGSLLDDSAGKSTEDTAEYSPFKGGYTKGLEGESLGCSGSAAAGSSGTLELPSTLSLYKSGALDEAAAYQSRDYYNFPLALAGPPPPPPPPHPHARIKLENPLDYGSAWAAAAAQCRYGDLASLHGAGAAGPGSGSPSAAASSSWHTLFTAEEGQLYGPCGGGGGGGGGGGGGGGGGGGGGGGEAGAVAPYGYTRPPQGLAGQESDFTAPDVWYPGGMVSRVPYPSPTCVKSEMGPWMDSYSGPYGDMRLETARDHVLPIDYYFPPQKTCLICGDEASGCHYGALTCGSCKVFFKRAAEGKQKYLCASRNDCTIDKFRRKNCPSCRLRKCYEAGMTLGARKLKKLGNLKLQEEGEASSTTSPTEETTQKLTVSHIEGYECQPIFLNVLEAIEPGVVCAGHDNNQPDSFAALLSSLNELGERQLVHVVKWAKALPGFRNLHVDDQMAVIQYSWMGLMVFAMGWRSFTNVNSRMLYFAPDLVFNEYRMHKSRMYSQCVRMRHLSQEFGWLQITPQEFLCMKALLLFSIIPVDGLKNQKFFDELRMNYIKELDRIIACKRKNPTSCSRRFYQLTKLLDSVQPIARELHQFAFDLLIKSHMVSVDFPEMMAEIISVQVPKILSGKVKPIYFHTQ
Assay: LNCaP Androgen Receptor Down-regulation Cell Assay (immunofluorescence end point)
Type: cell-based
Conditions: LNCaP prostate carcinoma cells, compound incubation 20-22 hours, 50% reduction of the AR signal; read-out: Androgen Receptor Down-regulation Assay (a) IC50/μM
Outline: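 AR loss reported as IC50 from curve fits of fluorescence dose-response data, with AR immunostained and read by laser-scanning cytometry. Compound exposure was 20-22 h at 37° C in LNCaP cells grown in 5% charcoal-stripped FBS and plated overnight beforehand.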

Structure (SMILES) | DC50 [µM]
FC(F)(Cl)c1nnc2ccc(N3CCN(CCc4ccccc4)CC3)nn12 [Example 349, 3-[chloro(difluoro)methyl]-6-[4-(2-phenylethyl)piperazin-1-yl][1,2,4]triazolo[4,3-b]pyridazine] | 1.7
CC(c1ccccc1)N1CCN(c2ccc3nnc(C(F)(F)Cl)n3n2)CC1 (stereo not shown) [Example 350, 3-[chloro(difluoro)methyl]-6-[4-(1-Phenylethyl)piperazin-1-yl][1,2,4]triazolo[4,3-b]pyridazine] | 0.74
FC(F)(F)c1cnc(N2CCCN(c3ccc4nnc(C(F)(F)Cl)n4n3)CC2)c(Cl)c1 [Example 351, 3-[chloro(difluoro)methyl]-6-[4-[3-chloro-5-(trifluoromethyl)pyridin-2-yl]-1,4-diazepan-1-yl][1,2,4]triazolo[4,3-b]pyridazine] | 1.9
Cc1cccc(C)c1N1CCN(c2ccc3nnc(C(F)(F)Cl)n3n2)CC1 [Example 353, 3-[chloro(difluoro)methyl]-6-[4-(2,6-dimethylphenyl)piperazin-1-yl][1,2,4]triazolo[4,3-b]pyridazine] | 0.69
FC(F)(Cl)c1nnc2ccc(N3CC4CN(Cc5ccccc5)CC4C3)nn12 (stereo not shown) [Example 354, 6-(5-benzylhexahydropyrrolo[3,4-c]pyrrol-2(1H)-yl)-3-[chloro(difluoro)methyl][1,2,4]triazolo[4,3-b]pyridazine] | 2.7
FC(F)(Cl)c1nnc2ccc(N3CCCC(c4ccccc4)CC3)nn12 (stereo not shown) [Example 355, 3-[chloro(difluoro)methyl]-6-(4-phenylazepan-1-yl)[1,2,4]triazolo[4,3-b]pyridazine] | 0.72
FC(F)(Cl)c1nnc2ccc(N3CCN(Cc4cccs4)CC3)nn12 [Example 356, 3-[chloro(difluoro)methyl]-6-[4-(thiophen-2-ylmethyl)piperazin-1-yl][1,2,4]triazolo[4,3-b]pyridazine] | 2.2
FC(F)(Cl)c1nnc2ccc(N3CCN(Cc4ccsc4)CC3)nn12 [Example 357, 3-[chloro(difluoro)methyl]-6-[4-(thiophen-3-ylmethyl)piperazin-1-yl][1,2,4]triazolo[4,3-b]pyridazine] | 2.1
FC(F)(F)c1nnc2ccc(N3CCN(Cc4cccc(Br)n4)CC3)nn12 [Example 367, 6-[4-[(6-bromopyridin-2-yl)methyl]piperazin-1-yl]-3-(trifluoromethyl)[1,2,4]triazolo[4,3-b]pyridazine] | 4.1
FC(F)(F)c1nnc2ccc(N3CCN(Cc4cccnc4Cl)CC3)nn12 [Example 369] | 8.7
FC(F)(F)c1nnc2ccc(N3CCN(Cc4cccnc4Br)CC3)nn12 [Example 376] | 3
N#Cc1cc(F)c(CN2CCN(c3ccc4nnc(C(F)(F)F)n4n3)CC2)c(F)c1 [Example 380] | 4.2
Fc1cccc(CN2CCN(c3ccc4nnc(C(F)(F)F)n4n3)CC2)c1F [Example 381] | 2.1
N#Cc1ccc(CN2CCN(c3ccc4nnc(C(F)(F)F)n4n3)CC2)c(F)c1 [Example 389] | 1.5
O=S(=O)(c1ccc2ccccc2c1)N1CCN(c2ccc3nnc(C(F)(F)F)n3n2)CC1 [Example 394, 6-[4-(naphthalen-2-ylsulfonyl)piperazin-1-yl]-3-(trifluoromethyl)[1,2,4]triazolo[4,3-b]pyridazine] | 5.6
COc1cccc(S(=O)(=O)N2CCN(c3ccc4nnc(C(F)(F)F)n4n3)CC2)c1 [Example 396] | 1.8
COc1ccccc1S(=O)(=O)N1CCN(c2ccc3nnc(C(F)(F)F)n3n2)CC1 [Example 397] | 3.9
COc1ccc(S(=O)(=O)N2CCN(c3ccc4nnc(C(F)(F)F)n4n3)CC2)cc1 [Example 398] | 1.9
COc1ccc(OC)c(S(=O)(=O)N2CCN(c3ccc4nnc(C(F)(F)F)n4n3)CC2)c1 [Example 399] | 3.7
N#Cc1ccccc1S(=O)(=O)N1CCN(c2ccc3nnc(C(F)(F)F)n3n2)CC1 [Example 403] | 4.8
COc1ccc(S(=O)(=O)N2CCN(c3ccc4nnc(C(F)(F)F)n4n3)CC2)c(OC)c1 [Example 404] | 2.7
O=S(=O)(c1ccc(F)cc1)N1CCN(c2ccc3nnc(C(F)(F)F)n3n2)CC1 [Example 405] | 3
CN(Cc1cccnc1)C1CCN(c2ccc3nnc(C(F)(F)F)n3n2)CC1 [Example 406, N-methyl-N-(pyridin-3-ylmethyl)-1-[3-(trifluoromethyl)[1,2,4]triazolo[4,3-b]pyridazin-6-yl]piperidin-4-amine] | 6.3
CN(Cc1ccc(F)cc1)C1CCN(c2ccc3nnc(C(F)(F)F)n3n2)CC1 [Example 407] | 5.7
CN(Cc1ccc(F)c(F)c1)C1CCN(c2ccc3nnc(C(F)(F)F)n3n2)CC1 [Example 408] | 1.7
CN(Cc1ccc(C#N)cc1)C1CCN(c2ccc3nnc(C(F)(F)F)n3n2)CC1 [Example 409] | 3.9
CN(Cc1ccc(F)c(C#N)c1)C1CCN(c2ccc3nnc(C(F)(F)F)n3n2)CC1 [Example 411] | 2.2

The remaining lines, values ahead:

DC50 [µM] | Structure (SMILES)
0.57 | CC1CN(Cc2ccccc2)CCN1c1ccc2nnc(C(F)(F)Cl)n2n1 (stereo not shown) [Example 352, 6-(4-benzyl-2-methylpiperazin-1-yl)-3-[chloro(difluoro)methyl][1,2,4]triazolo[4,3-b]pyridazine]
6.7 | C[C@H]1CN(Cc2ccncc2)CCN1c1ccc2nnc(C(F)(F)F)n2n1 [Example 358, 6-[(2S)-2-methyl-4-(pyridin-4-ylmethyl)piperazin-1-yl]-3-(trifluoromethyl)[1,2,4]triazolo[4,3-b]pyridazine]
2.6 | C[C@H]1CN(Cc2ccccn2)CCN1c1ccc2nnc(C(F)(F)F)n2n1 [Example 359]
1 | C[C@H]1CN(Cc2cccc(Br)n2)CCN1c1ccc2nnc(C(F)(F)F)n2n1 [Example 360]
4.7 | C[C@H]1CN(Cc2ccc(C(F)(F)F)nc2)CCN1c1ccc2nnc(C(F)(F)F)n2n1 [Example 361]
> 33 | C[C@H]1CN(Cc2cncc(F)c2)CCN1c1ccc2nnc(C(F)(F)F)n2n1 [Example 366]
0.93 | FC(F)(F)c1nnc2ccc(N3CCN(Cc4ccc(Br)nc4)CC3)nn12 [Example 374, 6-[4-[(6-bromopyridin-3-yl)methyl]piperazin-1-yl]-3-(trifluoromethyl)[1,2,4]triazolo[4,3-b]pyridazine]
5.9 | FC(F)(F)c1nnc2ccc(N3CCN(Cc4cnccc4Br)CC3)nn12 [Example 377]
1.8 | Fc1ccc(CN2CCN(c3ccc4nnc(C(F)(F)F)n4n3)CC2)c(F)c1 [Example 382]
2.9 | Fc1cccc(F)c1CN1CCN(c2ccc3nnc(C(F)(F)F)n3n2)CC1 [Example 384]
2.1 | COc1ccc(CN2CCN(c3ccc4nnc(C(F)(F)F)n4n3)CC2)c(F)c1 [Example 385]
2.4 | Fc1ccc(F)c(CN2CCN(c3ccc4nnc(C(F)(F)F)n4n3)CC2)c1 [Example 386]
1.6 | COc1ccc(CN2CCN(c3ccc4nnc(C(F)(F)F)n4n3)CC2)cc1F [Example 388]
1.7 | COc1ccc(F)c(CN2CCN(c3ccc4nnc(C(F)(F)F)n4n3)CC2)c1 [Example 390]
2.7 | Fc1cc(F)cc(CN2CCN(c3ccc4nnc(C(F)(F)F)n4n3)CC2)c1 [Example 391]
2.1 | CN(Cc1cc(F)cc(F)c1)C1CCN(c2ccc3nnc(C(F)(F)F)n3n2)CC1 [Example 410]
